Tests used:
[1] = biological target: 5-hydroxytryptamine receptor 2A (Homo sapiens) (UniProt P28223); experiment: Antagonist activity at […] receptor (unknown origin) at 10 uM
[2] = biological target: T1, 5-hydroxytryptamine receptor 1A (Homo sapiens) (UniProt P08908); experiment: Agonist activity at […] receptor (unknown origin) at 10 uM relative to 5-HT
T1 sequence (whole entry): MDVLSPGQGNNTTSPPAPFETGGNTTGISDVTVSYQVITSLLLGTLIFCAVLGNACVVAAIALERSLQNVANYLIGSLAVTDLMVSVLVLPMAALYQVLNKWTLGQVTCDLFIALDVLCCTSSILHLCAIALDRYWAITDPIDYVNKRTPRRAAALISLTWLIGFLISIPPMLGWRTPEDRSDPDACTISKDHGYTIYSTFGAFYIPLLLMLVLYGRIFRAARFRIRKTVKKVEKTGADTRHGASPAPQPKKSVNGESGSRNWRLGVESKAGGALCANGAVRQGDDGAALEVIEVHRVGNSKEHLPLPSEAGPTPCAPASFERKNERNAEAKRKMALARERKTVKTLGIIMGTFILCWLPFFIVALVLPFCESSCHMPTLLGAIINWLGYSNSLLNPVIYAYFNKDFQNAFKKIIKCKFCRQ

[3] = biological target: D(3) dopamine receptor (Homo sapiens) (UniProt P35462); experiment: Agonist activity at dopamine D3 receptor (unknown origin) at 10 uM relative to dopamine
Mus musculus = experiment: Antipsychotic activity in po dosed mouse assessed as reversal of MK-801-induced hyperactivity; format: functional

Sequence of D(3) dopamine receptor (Homo sapiens) (P35462 whole entry): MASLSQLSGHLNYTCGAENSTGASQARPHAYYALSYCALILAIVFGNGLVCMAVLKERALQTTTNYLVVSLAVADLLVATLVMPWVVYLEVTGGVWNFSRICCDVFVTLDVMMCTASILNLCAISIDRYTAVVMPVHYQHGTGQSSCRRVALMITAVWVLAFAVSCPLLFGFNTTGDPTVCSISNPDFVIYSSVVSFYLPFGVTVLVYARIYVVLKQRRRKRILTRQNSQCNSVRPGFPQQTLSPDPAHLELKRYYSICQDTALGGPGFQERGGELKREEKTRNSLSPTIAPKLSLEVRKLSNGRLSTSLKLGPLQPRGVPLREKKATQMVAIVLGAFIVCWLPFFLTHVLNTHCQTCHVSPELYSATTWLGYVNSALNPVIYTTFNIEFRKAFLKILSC
Sequence of 5-hydroxytryptamine receptor 2A (Homo sapiens) (P28223 whole entry): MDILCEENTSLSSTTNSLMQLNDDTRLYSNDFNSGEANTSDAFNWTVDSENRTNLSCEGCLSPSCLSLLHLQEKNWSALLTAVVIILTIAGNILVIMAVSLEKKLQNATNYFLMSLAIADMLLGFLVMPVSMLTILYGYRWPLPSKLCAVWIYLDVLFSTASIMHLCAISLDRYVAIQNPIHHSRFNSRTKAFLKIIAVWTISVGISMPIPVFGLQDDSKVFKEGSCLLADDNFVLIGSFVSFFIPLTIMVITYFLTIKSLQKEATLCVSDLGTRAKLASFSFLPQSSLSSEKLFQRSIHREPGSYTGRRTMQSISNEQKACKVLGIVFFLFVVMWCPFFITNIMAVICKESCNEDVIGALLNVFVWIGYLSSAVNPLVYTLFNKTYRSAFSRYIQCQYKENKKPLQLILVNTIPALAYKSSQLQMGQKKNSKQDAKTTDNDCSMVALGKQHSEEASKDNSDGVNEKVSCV

For `O=[N+]([O-])c1ccc(S(=O)(=O)N2CCC(CN3CCC(c4noc5cc(F)ccc45)CC3)CC2)cc1`, the inhibition [1] was 100%, the Activity [2] was 8.2% and the Activity [3] was 3.7%. It also gave an ED50 (Mus musculus) of 0.71 mg/kg.
